The source of these data is US20250136655A1, “INJECTION PEN FOR SUBCUTANEOUS ADMINISTRATION OF A PEPTIDE” (Zealand Pharma A/S, priority 2017, published 2025).

Series [1] is described as follows: Phase 2 clinical trial PK profile of ZP1848 and metabolites in SBS patients. The format is in vivo. The conditions noted are these: human, plasma, subcutaneous, Phase 2 study, SBS patients; read-out: terminal plasma half-life. The procedure:
The study was designed as a randomized, cross-over and double-blinded with three different doses of ZP1848 (10 mg, 1 mg, 0.1 mg) in 16 SBS patients.
The 18 SBS patients (16 patients completed the study) were randomized evenly and in a double-blinded fashion to each of the six cross-over dose level combinations: 10 mg/1 mg, 10 mg/0.1 mg, 1 mg/10 mg, 1 mg/0.1 mg, 0.1 mg/10 mg, 0.1 mg/1 mg of ZP1848. The patients were injected once daily (QD) subcutaneously with the above doses of ZP1848.
Blood samples for PK analysis were collected on several study visits throughout the study period: the study comprised a 1st baseline balance study (4 days), a 1st treatment period (21 days) including a 1st treatment balance study (last 4 days of 1st treatment period), followed by a wash-out period (at least 4 weeks); and a 2nd baseline balance study (4 days), a 2nd treatment period (21 days) including a 2nd treatment balance study (last 4 days of 2nd treatment period) and a follow-up period (at least 4 weeks).
PK sampling was performed at visit 11 (1st treatment, balance study) and visit 17 (second day of 2nd baseline study-after a wash out period), and again at visit 25 (2nd treatment balance study) and at visit 29 (last day of follow-up period).
At day visit 11 and visit 25 a full PK profile in steady state was investigated. PK samples were taken prior to injection of ZP1848, and at the following time points (+/−10 minutes) after trial product administration: 1 h, 2 h, 4 h, 6 h, 8 h, 10 h, 12 h and 24 h. Each PK sample contained 2 mL of blood, resulting in a total of […] blood drawn for PK purposes. The plasma sample was immediately stored at −80° C. after sampling.
Plasma samples were analyzed after immunoaffinity extraction followed by liquid chromatography mass spectrometry (LC-MS/MS). […] Plasma terminal elimination half-life (T½) was determined as In (2)/ke where ke is the magnitude of the slope of the log linear regression of the log concentration versus time profile during the terminal phase.

The conditions of series [2]: previous experiments; cited from earlier work.

Where two headings read alike, the source gives them in different places.

As to “H-HGEGTFSSELATILDALAARDFIAWLIATKITDKKKKKK-NH2 [ZP1848]”, the half-life in series [1] is 5 to 17 days; in series [2], “about 17 hours”.
